Patent US20130018061A1, “Method for Improving Exercise and Recovery From Exercise” (priority 2011, published 2013)

How the values were obtained:
[1] = absorbed in the small intestine; cited from earlier work
[2] = Study 2; effects typically experienced with high amounts of caffeine
Method: In this first study, twenty-one subjects (20 male, 1 female), all healthy and between the ages of 20 and 35 years were given the pre-workout supplement in capsule form to be taken 30 to 45 minutes before exercise on an empty stomach in place of any regularly consumed pre-workout product prior to the next exercise session. Subjects were instructed to maintain normal diet and activity. Subjects were surveyed for ratings of perceived effects on energy levels and mental focus. Subjects were also advised to supply general comments regarding the supplement in terms of negative side effects, comparison to other products, overall satisfaction and effectiveness.

[3] = 250 mg caffeine, 200 mg L-theanine, or both; cited from earlier work
[4] = 50 mg or 200 mg after cycling exercise, fourteen healthy male subjects; cited from earlier work

SMILES | time of peak plasma levels [1] | jitters and energy crash [2] | effect on alertness, anxiety and blood pressure [3] | post-exercise mental regeneration [4]
CCNC(=O)CC[C@H](N)C(=O)O [L-theanine, γ-N-ethylglutamine] | ≤ 30 min | prevented jitters and the energy crash | only acted to counter the increase in blood pressure | accelerated post-exercise mental regeneration
Cn1c(=O)c2c(ncn2C)n(C)c1=O [caffeine, 1,3,7-trimethylxanthine] | – | – | increased alertness, anxiety, and blood pressure | –
